Experimental data as given in US20250230153A1, “2,3-DIHYDROBENZO[B][1,4]DIOXIN-6-YL CONTAINING COMPOUNDS USEFUL AS IMMUNOMODULATORS” (BRISTOL-MYERS SQUIBB COMPANY, priority 2021, published 2025).
pIC50: −log10 of the molar value. Where a name gives a salt, the structure may show the parent alone.

molecular target: PD-1/PD-L1 (Homo sapiens (Human), UniProt Q9NZQ7); experiment: PD-1/PD-L1 Homogenous Time-Resolved Fluorescence (HTRF) binding assay; details: PD-1-Ig (20 nM final)/PD-L1-His (10 nM final) binding assay
Sequence (Q9NZQ7 18-239): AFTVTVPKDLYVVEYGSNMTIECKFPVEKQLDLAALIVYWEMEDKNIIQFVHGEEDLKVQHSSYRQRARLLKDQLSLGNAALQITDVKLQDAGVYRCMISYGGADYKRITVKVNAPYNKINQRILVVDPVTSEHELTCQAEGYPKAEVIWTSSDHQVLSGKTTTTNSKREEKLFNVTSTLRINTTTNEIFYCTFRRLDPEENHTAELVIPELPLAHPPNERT
From the text: The ability of the compounds of the invention to bind to PD-L1 was investigated using a PD-1/PD-L1 Homogenous Time-Resolved Fluorescence (HTRF) binding assay.
The interaction of PD-1 and PD-L1 can be assessed using soluble, purified preparations of the extracellular domains of the two proteins. The PD-1 and PD-L1 protein extracellular domains were expressed as fusion proteins with detection tags, for PD-1, the tag was the Fc portion of Immunoglobulin (PD-1-Ig) and for PD-L1 it was the 6 histidine motif (PD-L1-His). All binding studies were performed in an HTRF assay buffer consisting of dPBS supplemented with 0.1% […] bovine serum albumin and 0.05% (v/v) Tween-20. For the h/PD-L1-His binding assay, inhibitors were pre-incubated with PD-L1-His (10 nM final) for 15m in 4 μl of assay buffer, followed by addition of PD-1-Ig (20 nM final) in 1 μl of assay buffer and further incubation for 15 m. HTRF detection was achieved using europium crypate-labeled anti-Ig (1 nM final) and allophycocyanin (APC) labeled anti-His (20 nM final). Antibodies were diluted in HTRF detection buffer and 5 μl was dispensed on top of the binding reaction. The reaction mixture was allowed to equilibrate for 30 minutes and the resulting signal (665 nm/620 nm ratio) was obtained using an EnVision fluorometer. Additional binding assays were established between the human proteins PD-1-Ig/PD-L2-His (20 & 5 nM, respectively) and CD80-His/PD-L1-Ig (100 & 10 nM, respectively).
Recombinant Proteins: Human PD-1 (25-167) with a C-terminal human Fc domain of immunoglobulin G (Ig) epitope tag [hPD-1 (25-167)-3S-IG] and human PD-L1 (18-239) with a C-terminal His epitope tag [hPD-L1(18-239)-TVMV-His] were expressed in HEK293T cells and purified sequentially by ProteinA affinity chromatography and size exclusion chromatography. Human PD-L2-His and CD80-His was obtained through commercial sources.
Homogenous Time-Resolved Fluorescence (HTRF) Assays of Binding of Soluble PD-1 to Soluble PD-L1. Soluble PD-1 and soluble PD-L1 refers to proteins with carboxyl-end truncations that remove the transmembrane-spanning regions and are fused to heterologous sequences, specifically the Fc portion of the human immunoglobuling G sequence (Ig) or the hexahistidine epitope tag (His). All binding studies were performed in an HTRF assay buffer consisting of dPBS supplemented with 0.1% (w/v) bovine serum albumin and 0.05% (v/v) Tween-20. For the PD-1-Ig/PD-L1-His binding assay, inhibitors were pre-incubated with PD-L1-His (10 nM final) for 15m in 4 μl of assay buffer, followed by addition of PD-1-Ig (20 nM final) in 1 μl of assay buffer and further incubation for 15 m. PD-L1 fusion proteins from either human, cynomologous macaques, mouse, or other species were used. HTRF detection was achieved using europium crypate-labeled anti-Ig monoclonal antibody (1 nM final) and allophycocyanin (APC) labeled anti-His monoclonal antibody (20 nM final). Antibodies were diluted in HTRF detection buffer and 5 μl was dispensed on top of binding reaction. The reaction was allowed to equilibrate for 30 minutes and signal (665 nm/620 nm ratio) was obtained using an EnVision fluorometer. Additional binding assays were established between PD-1-Ig/PD-L2-His (20 and 5 nM, respectively), CD80-His/PD-L1-Ig (100 and 10 nM, respectively) and CD80-His/CTLA4-Ig (10 and 5 nM, respectively).
Recombinant Proteins. Carboxyl-truncated human PD-1 (amino acids 25-167) with a C-terminal human Ig epitope tag [hPD-1 (25-167)-3S-IG] and human PD-L1 (amino acids 18-239) with a C-terminal His epitope tag [hPD-L1(19-239)-tobacco vein mottling virus protease cleavage site (TVMV)-His] were expressed in HEK293T cells and purified sequentially by recombinant Protein A affinity chromatography and size exclusion chromatography. Human PD-L2-His (Sino Biologicals), CD80-His (Sino Biologicals), CTLA4-Ig (RnD Systems) were all obtained through commercial sources.

Row | SMILES | pIC50
1 | Cc1c(COc2cc(OCc3cccc(CN)c3)c(CN3CCCC[C@H]3C(=O)O)cc2Cl)cccc1-c1ccc2c(c1)OCCO2 [Example 1017, (S)-1-(2-((3-(Aminomethyl)benzyl)oxy)-5-chloro-4-((3-(2,3-dihydrobenzo[b][1,4]dioxin-6-yl)-2-methylbenzyl)oxy)benzyl)piperidine-2-carboxylic acid, bis-trifluoroacetic acid salt] | 7.69
2 | COC(=O)CCNS(=O)(=O)c1cncc(COc2cc(OCc3cccc(-c4ccc5c(c4)OCCO5)c3C)c(Cl)cc2CN[C@@](C)(CO)C(=O)O)c1 [Example 1018, (S)-2-((5-Chloro-4-((3-(2,3-dihydrobenzo[b][1,4]dioxin-6-yl)-2-methylbenzyl)oxy)-2-((5-(N-(3-methoxy-3-oxopropyl)sulfamoyl)pyridin-3-yl)methoxy)benzyl)amino)-3-hydroxy-2-methylpropanoic acid] | 8.40
3 | Cc1c(COc2cc(OCc3cncc(S(N)(=O)=O)c3)c(CN[C@@](C)(CO)C(=O)O)cc2Cl)cccc1-c1ccc2c(c1)OCCO2 [Example 1019, (S)-2-((5-Chloro-4-((3-(2,3-dihydrobenzo[b][1,4]dioxin-6-yl)-2-methylbenzyl)oxy)-2-((5-sulfamoylpyridin-3-yl)methoxy)benzyl)amino)-3-hydroxy-2-methylpropanoic acid] | 8.39
4 | Cc1c(COc2cc(OCc3cncc(S(=O)(=O)NCCC(=O)O)c3)c(CN[C@@](C)(CO)C(=O)O)cc2Cl)cccc1-c1ccc2c(c1)OCCO2 [Example 1020, (S)-2-((2-((5-(N-(2-Carboxyethyl)sulfamoyl)pyridin-3-yl)methoxy)-5-chloro-4-((3-(2,3-dihydrobenzo[b]1[1,4]dioxin-6-yl)-2-methylbenzyl)oxy)benzyl)amino)-3-hydroxy-2-methylpropanoic acid] | 8.51
5 | Cc1c(COc2cc(OCc3cncc(C(=O)NS(C)(=O)=O)c3)c(CN3CCCC[C@H]3C(=O)O)cc2Cl)cccc1-c1ccc2c(c1)OCCO2 [Example 1021, (S)-1-(5-Chloro-4-((3-(2,3-dihydrobenzo[b][1,4]dioxin-6-yl)-2-methylbenzyl)oxy)-2-((5-((methylsulfonyl)carbamoyl)pyridin-3-yl)methoxy)benzyl)piperidine-2-carboxylic acid] | 8.24
6 | Cc1c(COc2cc(OCCN3CC[C@@H](O)C3)c(CN[C@](C)(CO)C(=O)O)cc2Cl)cccc1-c1ccc2c(c1)OCCO2 [Example 1022, (R)-2-((5-Chloro-4-((3-(2,3-dihydrobenzo[b][1,4]dioxin-6-yl)-2-methylbenzyl)oxy)-2-(2-((R)-3-hydroxypyrrolidin-1-yl)ethoxy)benzyl)amino)-3-hydroxy-2-methylpropanoic acid] | 8.57
7 | Cc1c(COc2cc(OCCN3CC[C@@H](O)C3)c(CN3CCCC[C@H]3C(=O)O)cc2Cl)cccc1-c1ccc2c(c1)OCCO2 [Example 1023, (S)-1-(5-Chloro-4-((3-(2,3-dihydrobenzo[b][1,4]dioxin-6-yl)-2-methylbenzyl)oxy)-2-(2-((R)-3-hydroxypyrrolidin-1-yl)ethoxy)benzyl)piperidine-2-carboxylic acid] | 8.34
8 | Cc1c(COc2cc(OCCN3CC[C@@H](O)C3)c(CNC(C)(CO)CO)cc2Cl)cccc1-c1ccc2c(c1)OCCO2 [Example 1024, (R)-2-((5-Chloro-4-((3-(2,3-dihydrobenzo[b][1,4]dioxin-6-yl)-2-methylbenzyl)oxy)-2-(2-(3-hydroxypyrrolidin-1-yl)ethoxy)benzyl)amino)-2-methylpropane-1,3-diol] | 9.30
9 | Cc1c(COc2cc(OCCCCN3CC[C@@H](O)C3)c(CN3CCCC[C@H]3C(=O)O)cc2Cl)cccc1-c1ccc2c(c1)OCCO2 [Example 1025, (S)-1-(5-Chloro-4-((3-(2,3-dihydrobenzo[b][1,4]dioxin-6-yl)-2-methylbenzyl)oxy)-2-(4-((R)-3-hydroxypyrrolidin-1-yl)butoxy)benzyl)piperidine-2-carboxylic acid] | 7.81
10 | Cc1c(COc2cc(OCCCCN3CC[C@@H](O)C3)c(CN[C@](C)(CO)C(=O)O)cc2Cl)cccc1-c1ccc2c(c1)OCCO2 [Example 1026, (R)-2-((5-Chloro-4-((3-(2,3-dihydrobenzo[b][1,4]dioxin-6-yl)-2-methylbenzyl)oxy)-2-(4-((R)-3-hydroxypyrrolidin-1-yl)butoxy)benzyl)amino)-3-hydroxy-2-methylpropanoic acid] | 8.66
11 | Cc1c(COc2cc(OCCCCN3CC[C@@H](O)C3)c(CNC(C)(CO)CO)cc2Cl)cccc1-c1ccc2c(c1)OCCO2 [Example 1027, (R)-2-((5-Chloro-4-((3-(2,3-dihydrobenzo[b][1,4]dioxin-6-yl)-2-methylbenzyl)oxy)-2-(4-(3-hydroxypyrrolidin-1-yl)butoxy)benzyl)amino)-2-methylpropane-1,3-diol] | 8.39
12 | Cc1c(COc2cc(OCCCC(F)(F)F)c(CN3CCCC[C@H]3C(=O)O)cc2Cl)cccc1-c1ccc2c(c1)OCCO2 [Example 1028, (S)-1-(5-Chloro-4-((3-(2,3-dihydrobenzo[b][1,4]dioxin-6-yl)-2-methylbenzyl)oxy)-2-(4,4,4-trifluorobutoxy)benzyl)piperidine-2-carboxylic acid] | 8.74
13 | Cc1c(COc2cc(OCCCC(F)(F)F)c(CN[C@](C)(CO)C(=O)O)cc2Cl)cccc1-c1ccc2c(c1)OCCO2 [Example 1029, (R)-2-((5-Chloro-4-((3-(2,3-dihydrobenzo[b][1,4]dioxin-6-yl)-2-methylbenzyl)oxy)-2-(4,4,4-trifluorobutoxy)benzyl)amino)-3-hydroxy-2-methylpropanoic acid] | 8.92
14 | Cc1c(COc2cc(OCCCC(F)(F)F)c(CNC(C)(CO)CO)cc2Cl)cccc1-c1ccc2c(c1)OCCO2 [Example 1030, 2-((5-Chloro-4-((3-(2,3-dihydrobenzo[b][1,4]dioxin-6-yl)-2-methylbenzyl)oxy)-2-(4,4,4-trifluorobutoxy)benzyl)amino)-2-methylpropane-1,3-diol] | 8.19
15 | Cc1c(COc2cc(OC[C@H](C)CO)c(CN3CCCC[C@H]3C(=O)O)cc2Cl)cccc1-c1ccc2c(c1)OCCO2 [Example 1031, (S)-1-(5-Chloro-4-((3-(2,3-dihydrobenzo[b][1,4]dioxin-6-yl)-2-methylbenzyl)oxy)-2-((R)-3-hydroxy-2-methylpropoxy)benzyl)piperidine-2-carboxylic acid] | 7.83
16 | Cc1c(COc2cc(OC[C@H](C)CO)c(CN[C@](C)(CO)C(=O)O)cc2Cl)cccc1-c1ccc2c(c1)OCCO2 [Example 1032, (R)-2-((5-Chloro-4-((3-(2,3-dihydrobenzo[b][1,4]dioxin-6-yl)-2-methylbenzyl)oxy)-2-((R)-3-hydroxy-2-methylpropoxy)benzyl)amino)-3-hydroxy-2-methylpropanoic acid] | 8.36
17 | Cc1c(COc2cc(OC[C@H](C)CO)c(CNC(C)(CO)CO)cc2Cl)cccc1-c1ccc2c(c1)OCCO2 [Example 1033, (R)-2-((5-Chloro-4-((3-(2,3-dihydrobenzo[b][1,4]dioxin-6-yl)-2-methylbenzyl)oxy)-2-(3-hydroxy-2-methylpropoxy)benzyl)amino)-2-methylpropane-1,3-diol] | 8.41
18 | Cc1c(COc2cc(OC[C@@H](C)CO)c(CN3CCCC[C@H]3C(=O)O)cc2Cl)cccc1-c1ccc2c(c1)OCCO2 [Example 1034, (S)-1-(5-chloro-4-((3-(2,3-dihydrobenzo[b][1,4]dioxin-6-yl)-2-methylbenzyl)oxy)-2-((S)-3-hydroxy-2-methylpropoxy)benzyl)piperidine-2-carboxylic acid] | 8.41
